Experimental data: the supplement of paper PMC8671470

What was measured:
Experiment in all cases: cell viability (% survival relative to DMSO control, bortezomib = 0%); higher = less cytotoxic
Conditions in all cases: 72 h
[1] = test system: BV-173
Procedure, shortened: (§1)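 Reported values are percent survival from duplicate wells, averaged. Fifteen myeloid leukaemia cell lines were treated in 384-well plates with compounds at 1, 10, 100, 1000 or 10000 nM for 72 h at 37 °C in 5% CO2. Signals from CellTiter-Glo luminescence were scaled with vehicle as 100% and a 10 µM positive control as 0%.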

[2] = test system: HEL
Procedure, shortened: as §1

[3] = test system: KG-1
Procedure, shortened: as §1

[4] = test system: SHI-1
Procedure, shortened: as §1

| SMILES | cell viability ([1]; 1 nM) | cell viability ([1]; 10 nM) | cell viability ([1]; 100 nM) | cell viability ([1]; 1000 nM) | cell viability ([1]; 10000 nM) | cell viability ([2]; 1 nM) | cell viability ([2]; 10 nM) | cell viability ([2]; 100 nM) | cell viability ([2]; 1000 nM) | cell viability ([2]; 10000 nM) | cell viability ([3]; 1 nM) | cell viability ([3]; 10 nM) | cell viability ([3]; 100 nM) | cell viability ([3]; 1000 nM) | cell viability ([3]; 10000 nM) | cell viability ([4]; 1 nM) | cell viability ([4]; 10 nM) | cell viability ([4]; 100 nM) | cell viability ([4]; 1000 nM) | cell viability ([4]; 10000 nM) |
| --- | --- | --- | --- | --- | --- | --- | --- | --- | --- | --- | --- | --- | --- | --- | --- | --- | --- | --- | --- | --- |
| O=C(c1ccc(OCCN2CCCCC2)cc1)c1c(-c2ccc(O)cc2)sc2cc(O)ccc12 [Raloxifene] | 93% | 95.9% | 98.2% | 107% | 92.7% | 90.2% | 97.7% | 96.3% | 98.4% | 87.4% | 102% | 90.6% | 92.1% | 96.5% | 75.1% | 97% | 102% | 107% | 110% | 89.5% |
| O=C(O)c1nn(Cc2ccc(Cl)cc2Cl)c2ccccc12 [Lonidamine] | 104% | 89.4% | 108% | 90.1% | 94.5% | 102% | 111% | 120% | 99.5% | 106% | 97.8% | 103% | 103% | 84.7% | 71.9% | 107% | 114% | 105% | 95.5% | 99.4% |
| CC12CCC(O)CC1CCC1C2CCC2(C)C(C3=CC(=O)OC3)CCC12O (stereo not given) [Digitoxigenin] | 106% | 95.9% | 86.2% | 2.96% | -1.17% | 102% | 99.1% | 103% | 1.26% | -1.18% | 128% | 113% | 87.5% | 6.15% | -1.05% | 108% | 108% | 103% | 4.47% | -0.733% |
| CCOC(=O)[C@H]1O[C@@H]1C(=O)N[C@@H](CC(C)C)C(=O)NCCC(C)C [Aloxistatin] | 96.7% | 118% | 105% | 96.7% | 91.5% | 111% | 102% | 106% | 96.2% | 88.2% | 99.8% | 104% | 103% | 92.9% | 86.5% | 102% | 92.6% | 104% | 102% | 92.5% |
| Nc1ncnc2c1ncn2[C@@H]1O[C@H](CSCC[C@H](N)C(=O)O)[C@@H](O)[C@H]1O [S-Adenosyl Homocysteine] | 98.5% | 83.9% | 99.1% | 104% | 104% | 108% | 114% | 104% | 101% | 113% | 110% | 106% | 98.1% | 100% | 102% | 100% | 122% | 111% | 105% | 99.9% |
| Cc1c(-c2ccccc2)oc2c(C(=O)OCCN3CCCCC3)cccc2c1=O.Cl [Flavoxate] | 86.9% | 100% | 95.6% | 94.1% | 97.9% | 91% | 105% | 107% | 95.3% | 100% | 94.7% | 108% | 94.8% | 97% | 106% | 94.8% | 99.6% | 97.6% | 98.4% | 101% |
| Sc1ncnc2nc[nH]c12 [6-mercaptopurine] | 103% | 93.8% | 86.8% | 38.8% | 12.3% | 96.5% | 98.2% | 95.6% | 70.6% | 7.42% | 112% | 103% | 93.4% | 97.9% | 89.4% | 113% | 98.6% | 102% | 66.2% | 32.6% |
| CCOC(=O)N1c2ccc(C(F)(F)F)cc2[C@@H](N(Cc2cc(C(F)(F)F)cc(C(F)(F)F)c2)C(=O)OC)C[C@H]1CC [Torcetrapib] | 82.9% | 94% | 67% | 49.3% | 26.9% | 102% | 96.9% | 134% | 103% | 109% | 84.9% | 52.6% | 107% | 81.1% | 45.1% | 94.8% | 105% | 132% | 114% | 99.8% |
| C=CCc1ccc2c(c1O)C(=O)c1ccccc1C2=O [R162] | 101% | 97% | 89.9% | 125% | 118% | 104% | 101% | 103% | 106% | 110% | 85.5% | 98% | 107% | 109% | 114% | 101% | 99.7% | 104% | 118% | 101% |
| O=C(COc1ccc(C(=O)c2ccccc2)cc1)NC1CCN(Cc2ccccc2)CC1 [AdipoRon] | 84% | 105% | 96.7% | 87% | 52.9% | 94.5% | 96.6% | 96.6% | 97.5% | 85.4% | 93.9% | 107% | 104% | 91.9% | 59.6% | 92.5% | 104% | 96% | 103% | 71.7% |
| OCCN1CCN(CCCN2c3ccccc3Sc3ccc(Cl)cc32)CC1 [Perphenazine] | 127% | 97.3% | 89.9% | 117% | 23.2% | 120% | 107% | 90.1% | 108% | 107% | 105% | 93% | 97.4% | 99.7% | 43.4% | 100% | 110% | 97.1% | 123% | 55.2% |
| O=C(O)C(Cl)Cl [Dichloroacetate] | 96.9% | 91% | 103% | 95.7% | 93.9% | 102% | 102% | 101% | 97% | 103% | 108% | 94.6% | 91.5% | 93% | 103% | 99.7% | 104% | 96.8% | 101% | 103% |
| O=C1Oc2ccccc2C(=O)C1CC1C(=O)Oc2ccccc2C1=O (stereo not given) [Dicumarol] | 89.5% | 107% | 91.8% | 94.1% | 109% | 109% | 102% | 92% | 101% | 107% | 106% | 105% | 88.6% | 101% | 95.9% | 95.8% | 105% | 104% | 106% | 105% |
| O=C(O)CC[C@H](NC(=O)c1ccc([N+](=O)[O-])cc1)C(=O)O [(S)-2-(4-Nitrobenzamido)pentanedioic acid] | 96.2% | 108% | 92.8% | 104% | 80.7% | 89.9% | 107% | 94% | 96.3% | 90.4% | 95.5% | 93.2% | 97.4% | 98.6% | 99.9% | 97.5% | 107% | 102% | 102% | 93.9% |
| CC(C(=O)O)C(=O)O [Methylmalonate] | 92.5% | 89.2% | 104% | 98.3% | 96.1% | 87.5% | 100% | 109% | 81.5% | 95.3% | 92.5% | 90.8% | 91.2% | 88.9% | 88.4% | 98.9% | 83.3% | 105% | 88.7% | 97% |
| C#Cc1cnc(O)nc1O [Eniluracil] | 94.6% | 115% | 106% | 109% | 85.9% | 100% | 92.2% | 118% | 90.1% | 106% | 103% | 117% | 107% | 100% | 114% | 97.7% | 106% | 114% | 103% | 102% |
| O=C(O)c1cc2sccc2[nH]1 [4H-thieno[3,2-b]pyrrole-5-carboxylic acid] | 104% | 102% | 102% | 99.1% | 100% | 120% | 106% | 97.5% | 93.5% | 108% | 105% | 106% | 92.7% | 91.8% | 95.2% | 108% | 96.4% | 90.4% | 97% | 107% |
| CC(/C=C1\SC(=S)N(CC(=O)O)C1=O)=C\c1ccccc1 [Epalrestat] | 101% | 95.1% | 96.7% | 106% | 112% | 120% | 94.8% | 99.5% | 95.5% | 112% | 108% | 101% | 116% | 104% | 111% | 120% | 100% | 106% | 93.5% | 113% |
| C1CCc2nnc(C34CC5CC(CC(C5)C3)C4)n2CC1 [MERCK-544] | 107% | 66.3% | 85.7% | 94.7% | 92.2% | 104% | 106% | 95.2% | 92.4% | 132% | 101% | 106% | 98.5% | 95.2% | 105% | 90.2% | 110% | 104% | 90.2% | 118% |
| CC(C)Cc1sc(N)nc1-c1ccc(P(=O)(O)O)o1 | 85.3% | 111% | 102% | 95.2% | 86.7% | 95.3% | 93.1% | 118% | 109% | 85.5% | 110% | 90.8% | 102% | 98.8% | 108% | 106% | 98.3% | 106% | 98.7% | 104% |
| COc1cc2c(NC3CCN(C)CC3)nc(N3CCCN(C)CC3)nc2cc1OCCCN(C)C [UNC0224] | 109% | 117% | 103% | 91.6% | 83.3% | 84.8% | 114% | 106% | 98.3% | 88.6% | 102% | 117% | 94.1% | 96.8% | 108% | 91.9% | 108% | 102% | 93.1% | 73.7% |
| [N-]=[N+]=CC(=O)CC[C@H](N)C(=O)O [6-Diazo-5-oxo-L-norleucine] | 94.8% | 89.6% | 107% | 93.4% | 96.5% | 98.6% | 109% | 98.5% | 95.1% | 96.6% | 110% | 95.2% | 101% | 117% | 98.9% | 110% | 101% | 103% | 104% | 99% |
| CN(C/C=C/C#CC(C)(C)C)Cc1cccc2ccccc12 [Terbinafine] | 113% | 92% | 93.3% | 96.1% | 85.3% | 101% | 91.1% | 110% | 96.8% | 96.6% | 94.1% | 106% | 90.9% | 95.5% | 92.6% | 99.4% | 101% | 108% | 99.5% | 98.9% |
| N[C@](CCCCB(O)O)(CCN1CCCCC1)C(=O)O [Arginase inhibitor 1] | 141% | 77% | 90.8% | 88.5% | 96.1% | 109% | 96.7% | 101% | 90.4% | 95.4% | 97.2% | 84.2% | 96.6% | 100% | 92% | 92% | 105% | 90.1% | 110% | 92.8% |
| Nc1ccn([C@@H]2O[C@H](CO)[C@@H](O)[C@@H]2O)c(=O)n1 [Cytarabine] | 102% | 16.4% | 0.292% | -1.03% | 0.0249% | 104% | 95.2% | 19.6% | -0.409% | 1.24% | 108% | 108% | 63.5% | 21.8% | 11.3% | 102% | 92.6% | 58% | 14.6% | 2.46% |
| C1CCC(C(CC2CCCCN2)C2CCCCC2)CC1.O=C(O)/C=C\C(=O)O (stereo not given) [Perhexiline] | 87.1% | 96.1% | 93.8% | 98.9% | 0.141% | 108% | 82.7% | 108% | 91.3% | 14.1% | 91.9% | 85.2% | 100% | 95.6% | 0.46% | 95% | 92% | 103% | 102% | 0.332% |
| Cc1coc2c1C(=O)C(=O)c1c-2ccc2c(C)cccc12 [Tanshinone I] | 109% | 103% | 92% | 94% | 83.6% | 121% | 97.3% | 107% | 106% | 92.7% | 113% | 99.9% | 98% | 99.3% | 77.6% | 110% | 88.4% | 108% | 105% | 84.2% |
